Data as given in patent US20140162955A1, “Antagonizing Heparin With Salicylamide Compounds And Histamine Blocking Agents” (CELLCEUTIX CORPORATION, priority 2012, published 2014).

Tested on: anesthetized rats
Assay: Cardiovascular effects (blood pressure, heart rate) in anesthetized rats pretreated with heparin and histamine antagonists or NO synthase inhibitor
Format: in vivo, rat
Details: for blocking of blood pressure reductions caused by IV infusion of Compound 100: pretreatment at T = -15 minutes, Compound 100 at 8 and 16 mg/kg, anesthetized rat
Procedure: A purpose of this study was to evaluate the role of histamine or nitric oxide (NO) on the hemodynamic effects of Compound 100 administered by a 10 minute IV infusion in rats by pretreatment with an H1 receptor blocker (diphenhydramine; DPH), an H2 receptor blocker (cimetidine; CIM), or an NO synthase inhibitor (L-NAME). Surgically prepared animals (jugular vein catheter for test article administration and carotid artery catheter for blood pressure/heart rate measurement) were purchased from Charles River Laboratories, Raleigh, N.C. Animals were anesthetized on the day of experimentation with isoflurane (1.8-4%). Blood pressure and heart rate data were collected on a Grass Polygraph recorder. Groups of three or four animals were administered two pretreatments followed by the administration of the vehicle or Compound 100. Dose groups are described in Table 1. Treatment 1 was administered at T=−15 minutes as an intravenous administration of saline, cimetidine or L-Name, a subcutaneous dose of diphenhydramine or a combination of diphenhydramine (s.c.) and cimetidine (i.v.). Saline or heparin were administered at T=−3 minutes by intravenous administration (Treatment 2). Treatment 3 was Compound 100 or sterile water (vehicle) which was administered by a 10 minute intravenous infusion. Blood pressure and heart rate were recorded prior to Treatment 1, 5 and 10 minutes after Treatment 1, 2 minutes following Treatment 2, and at 1, 15, 25, 40, and 70 minutes following Treatment 3. Each recording interval was approximately 1 minute long. [table]

Row | Structure (SMILES) | blocking of blood pressure reductions caused by IV infusion of Compound 100 | blood pressure following administration of L-NAME, prior to dosing of test agent (L-NAME 100 mg/kg i.v., before Compound 100)
1 | CN/C(=N/CCSCc1nc[nH]c1C)NC#N [Cimetidine, cimetidine] | only prevented blood pressure reductions at the 8 mg/kg dose | –
2 | COC(=O)[C@@H](N)CCCNC(=N)N[N+](=O)[O-] [L-NAME] | ineffective at both Compound 100 dosages | increases in blood pressure were evident
3 | CN(C)CCOC(c1ccccc1)c1ccccc1 [diphenhydramine] | effectively blocks blood pressure reductions | –
